# Results reported in patent US10130598B2, “Methods and compositions for administration of 3-halopyruvate and related compounds for the treatment of cancer” (The Johns Hopkins University, priority 2008, dated 2018).
# Legend:
# [1] = Effect of 3-BrPA concentration on tolerability of oral administration; assay type: in vivo, nude mice; conditions: for Time to death (all mice died): oral
# Protocol: To determine the effect of compound concentration on the tolerable dose of 3-BrPA, a series of experiments were performed in nude mice to determine how a change in administered volume, and therefore a change 3-BrPA concentration, would influence compound efficacy and animal survival. For these experiments, 3-BrPa was administered at a dose of 200 mg/kg and a pH of 4.
# All mice in group 1 and 2 (n=3 per group) died within 24 hours after receiving 5 mg of 3-BrPA in volumes of […], respectively.
# [2] = system: VX2 tumor; assay: Oral administration of 3-BrPA in the VX2 liver tumor rabbit model; assay type: in vivo, New Zealand White rabbits
# Protocol: New Zealand White rabbits were used in the study. All rabbits, carriers and recipients, were anesthetized with a mixture of acepromazine (2.5 mg/kg; Phoenix, St. Joseph, Mo.) and ketamine hydrochloride (44 mg/kg; Phoenix) administered intramuscularly. The VX2 tumor cell suspension was first injected into the hind legs of carrier rabbits and grown for 2 weeks. Resultant tumors were harvested from each carrier and a tumor suspension was prepared from each harvested tumor by dissection of viable tumor tissue and aseptic mincing.
# For the rabbits that were going to receive the VX2 tumor implanted in the liver, intravenous access was gained via a marginal ear vein and 0.1-0.2 ml (2.5-5 mg) of sodium pentobarbital (Abbott Laboratories, Abbott Park, Ill.) was given periodically to maintain anesthesia. The abdomen of each recipient rabbit was shaved and disinfected with ethanol and povidine iodine. The liver of the rabbit was exposed by a midline incision, then an aliquot of the tumor cell suspension (0.2 ml) was injected directly using a 21-gauge angiocatheter into the left lobe of the liver in order to develop a solitary lesion with adequate surrounding liver parenchyma. The abdomen was closed in two layers. The tumor was allowed to grow in the rabbit livers for 7 days. Pain and distress levels were assessed by daily by monitoring food intake, feces and urine production and finally checking for signs of guarding or reluctance to move when touched.
# Oral administration of 3-BrPA dissolved in PBS was examined using the VX2 tumor model, an animal model for hepatocellular carcinoma (described above). VX2 tumors were allowed to grow the livers of 12 New Zealand White rabbits for 10 days. Tumor bearing rabbits were divided in 4 groups. Group 1 (n=3) received 5 mg of 3-BrPA in 2.75 ml of Phosphate Buffered Saline (PBS) orally once a day, group 2 (n=3) received 10 mg of 3-BrPA in 2.75 ml of PBS orally once a day, group 3 (n=3) received 50 mg of 3-BrPA in 2.75 ml of PBS orally once a day and group 4 (control, n=3) received no treatment. Median survival for the animals in group 1 (n=3), receiving 5 mg of 3-BrPA in 2.75 ml of PBS, was 66 days. Animals in group 2 (n=3), receiving 10 mg of 3-BrPA in 2.75 ml of PBS, survived for 70 days. All the animals in group 3 (n=3), receiving 50 mg of 3-BrPA in 2.75 ml of PBS expired within 24 hours of oral administration of the first dose.
# To test whether buffering 3-BrPA with NaHCO3 would allow oral administration of a higher dose of 3-BrPA, the maximum tolerated dose of orally administered 3-BrPA dissolved in NaHCO3 was determined. As in Example 1, the VX2 tumor model was used, with VX2 tumors grown in the livers of 12 New Zealand White rabbits for 10 days. Once again, the tumor bearing rabbits were divided in 4 groups. […] All animals in group 3 (n=3) expired within 24 hours after receiving 1000 mg of 3-BrPA in 2.75 ml of NaHCO3 orally.
# The effect of pH on the survival of rabbits bearing VX2 liver tumors that were treated with the MTD of 3-BrPA buffered with NaHCO3 was examined. The VX2 tumor model was once again used, as described above. A total of 20 New Zealand White rabbits were included in the study. All rabbits received VX2 tumor implantation as described above. The tumor was allowed to grow in the rabbit livers for 7 days. Rabbits were divided in 4 groups. Group 1 (n=6) received 500 mg of 3-BrPA in 2.75 ml of NaHCO3 (1 M, resulting in pH 4), group 2 (n=2) received 500 mg of 3-BrPA in 2.75 ml of PBS (resulting in pH<2), group 3 (n=6) received 500 mg of 3-BrPA in 2.75 ml of NaHCO3 (2 M, resulting in pH 7) and group 4 (n=6) received no treatment (control group). All drugs were administered orally once a day.
# [3] = MTD of 3-BrPA buffered with 2.75 ml of NaHCO3
# [4] = MTD of 3-BrPA buffered with NaHCO3
structure (smiles),measurement,setting,value
"O=C(O)C(=O)CBr [3-BrPA, 3-bromopyruvate]",Time to death (all mice died),"[1]; group 1: 5 mg (200 mg/kg, pH 4) in a volume of 50 ml",≤ 24 h
same,Time to death (all mice died),"[1]; group 2: 5 mg (200 mg/kg, pH 4) in a volume of 100 ml",≤ 24 h
same,Tolerability of daily oral administration,"[1]; group 3: 200 mg/kg, pH 4, volume of 150 ml",did not show any signs of discomfort
same,Tolerability of daily oral administration,"[1]; group 4: 200 mg/kg, pH 4, volume of 200 ml",did not show any signs of discomfort
same,Tolerability of daily oral administration,"[1]; group 5: 200 mg/kg, pH 4, volume of 300 ml",did not show any signs of discomfort
same,Median survival,[2]; 5 mg of 3-BrPA in 2.75 ml of PBS orally once a day,66 days
same,Survival,[2]; 10 mg of 3-BrPA in 2.75 ml of PBS orally once a day,70 days
same,Median survival,[2]; 50 mg of 3-BrPA in 2.75 ml of NaHCO3 (1M) orally once a day,60 days
same,Time to death after first oral dose (all animals expired),[2]; 50 mg of 3-BrPA in 2.75 ml of PBS orally,≤ 24 h
same,"Animal survival, Kaplan Meier analysis","[2]; 500 mg in 2.75 ml of NaHCO3 (1 M, resulting in pH 4), orally once a day, compared to groups 2, 3 and 4",significant survival benefit
same,Median survival time,[2]; 500 mg of 3-BrPA in 2.75 ml of NaHCO3 orally once a day,100 days
same,Outcome of unbuffered 3-BrPA,"[2]; 500 mg, unbuffered, pH<2, oral",immediate death
same,Time to death (all animals expired),[2]; 1000 mg of 3-BrPA in 2.75 ml of NaHCO3 orally,≤ 24 h
same,Survival longer than rabbits that did not receive 3-BrPA,[2]; [3],79%
same,Survival longer than rabbits treated with the MTD of 3-BrPA buffered with PBS,[2]; [3],42%
same,Cause of death,[2]; [4],died of aspiration
same,Mean liver tumor size,[2]; [4],< 0.5 cm
same,Metastases on pathology,[2]; [4],no metastases
same,Mean liver tumor size,[2]; all other groups,> 8 cm
same,Metastases on pathology,[2]; all other rabbits,widespread metastases
same,Increase of MTD compared to the MTD of 3-BrPA in PBS,[2]; buffered with 2.75 ml of 1M NaHCO3,50 fold
same,Maximum tolerated dose (MTD),"[2]; buffered with 2.75 ml of 1M NaHCO3, oral",500 mg
same,Effectiveness as a cancer therapeutic,"[2]; buffering conditions that resulted in a pH>6 (500 mg in 2 M NaHCO3, pH 7)",less effective
same,Maximum tolerated dose (MTD),"[2]; dissolved in 2.75 ml of PBS, oral",10 mg
